The record followed here is patent US20260224555A1, “NEW PHENYLQUINOLONE COMPOUND HAVING ANTIBACTERIAL AND ANTI-CANCER FUNCTIONS AND PREPARATION THEREOF” (AlphaMol Science Ltd (Shanghai), priority 2022, published 2026).

The subject of assay [1] is Staphylococcus aureus ATCC43300. The assay can be described thus: Resistance test of bacteria against compounds (serial induction, 21 days). The settings on record: start of resistance test, S. aureus ATCC43300. It counts as cell-based. Here is the method: This example provides a resistance test of bacteria against compounds, and the specific experimental method is as follows.
1. […] It was ensured that among the 6 final concentrations of the drug diluted into the wells, some were higher than the original MIC of the bacteria and some were lower than the original MIC of the bacteria.
2. Preparation of bacterial liquid: 10 mL of culture medium was taken and added to a sterilized plate using a pipette, then 100 µL of the above-mentioned passaged bacterial liquid was added, and mixed well for later use.
3. The above-mentioned diluted bacterial liquid was taken and added to a 96-well plate using a pipette, 180 μL per well, 3 wells per group, 6 groups in total. 20 μL of drug solution was added to each well (note: it is necessary to replace the pipette tip each time the drug is added), so that the final drug concentrations were […], respectively. The well with 200 μL of diluted bacterial liquid was used as the positive control well, and the well with 200 μL of culture medium was used as the negative control well.
The test object was Staphylococcus aureus (S. aureus).

Assay [2] has as its system human acute monocytic leukemia cell THP-1. The assay can be described thus: In vitro anticancer activity test (MTT cell proliferation). It counts as cell-based. How it is done:
(§1) The anticancer activity of the compounds was tested using an in vitro cancer cell tests. The specific test method is as follows:
(§2) 1. Cell recovery and culture method: the cryovial was taken out from the liquid nitrogen container firstly, soaked directly in 37° C. warm water, and shaked from time to time to let it thaw as soon as possible. Then, the cryovial was transferred to a clean bench, and the lid was open. The cell suspension was taken into a centrifuge tube using a rubber-tipped dropper and more than 10 times the culture medium was added, mixed well, and centrifuged at 50 g for 5 minutes. Then, the supernatant was discarded, complete culture medium containing 10% fetal bovine serum was added to resuspend the cells, the cells was counted, the cell density was adjusted, and then inoculated into a culture bottle. The culture bottle was placed in a cell culture incubator at 5% CO2 and 37° C. The complete culture medium was replaced once the next day and the culture was continued.
(§3) 2. Cell passaging method: adherent cells in the logarithmic growth phase were placed in a clean bench, the original culture medium was discarded, and washed three times with 1×PBS. An appropriate amount of 0.25% trypsin digestion solution was added to moisten the cells, and then the trypsin solution was aspirated. The cells were placed in a cell culture incubator at 5% CO2 and 37° C. for digestion for a suitable time, and observed under a microscope. When 90% of the cells become round, the cells were moved immediately to the clean bench and complete culture medium was added to terminate digestion. Then, the cells were dislodged by pipetting up and down with a rubber-tipped dropper to single cells. The cells were counted, and the cell density was adjusted. The cells were inoculated into a suitable culture bottle or dish, added enough complete culture medium, and placed in a cell culture incubator at 5% CO2 and 37° C. for static culture.
(§4) For suspension cells in the logarithmic phase, the original culture medium was directly centrifuged at 50 g for 5 minutes, the supernatant was discarded, and the cells were washed once with PBS and centrifuged. After discarding the supernatant, the complete culture medium was added and the cells were dispersed using a rubber-tipped dropper. The cells are counted, and the cell density was adjusted. The cells were inoculated into appropriate culture bottles or culture dishes, and sufficient complete culture medium was added, and the cells were cultured in a cell culture incubator at 5% CO2 and 37° C.
(§5) 3. Cell proliferation assay: cells in good state in logarithmic phase were taken and appropriate amount of the cells was inoculated into 96-well plates according to the cell passage treatment method, with each well containing 180 μL complete medium. After the cells growth was recovered and the number of cells in each well is 5000±500, a drug was added for treatment.
(§6) After drug treatment during the experimental time, MTT solution with a final concentration of 0.5 mg/mL was added to each well, and placed in a cell culture incubator at 5% CO2 and 37° C. to allow a fully reaction of MTT with cells. After 4 hours, the solution in the 96-well plate was discarded, 100 µL of DMSO was added, and shaked to dissolve the formazan precipitated at the bottom of the plate, and the absorbance value of samples was detected at a wavelength of 570 nm using a microplate reader. Calculation method of cell viability rate: […]

For assay [3], the system named is human acute myeloid leukemia cell MOLM-13. The description is as above. It is filed as cell-based. Here is the method:
as §1, §2, §3, §4, §5, §6

Assay [4] deals with human liver cancer cell BLE-7402. The description is as above. It counts as cell-based. How it is done: as §1, §2, §3, §4, §5, §6
Assay [5] relates to human renal cancer cell OS-RC-2. The assay is described as above. It counts as cell-based. Here is the method: as §1, §2, §3, §4, §5, §6
The test system of assay [6] is human bladder transitional cell carcinoma cell T24. The assay is described as above. It counts as cell-based. The settings on record: T-24. Here is the method:
as §1, §2, §3, §4

The subject of assay [7] is human epidermal carcinoma cell A431. The description is as above. It is filed as cell-based. The settings on record: A-431. Here is the method: as §1, §2, §3, §4
Assay [8] concerns Staphylococcus aureus ATCC43300. The assay can be described thus: Systemic blood infection animal model. It is filed as in vivo, mice. The following applies: for number of colonies of liver and kidney: 3 times a day, 7 days. How it is done:
(2) Sterile phosphate buffered saline (PBS) was used to prepare a 1×10^7 CFU/mL Staphylococcus aureus ATCC43300 bacterial suspension for later use; the drug dosage required for mice was calculated for each group, and solutions of Example 34 and solvent for gavage (400 or 200 μL of Tween 80 was mixed with Example 34, grinded with an agate mortar until it became transparent, and then 0.5% sodium carboxymethyl cellulose solution was added to reach the required concentration and volume of the test drug) were prepared for later use.
(3) Except for the blank group, 100 μL of the bacterial suspension prepared in step 2 was injected into the tail vein of each mouse.
(4) 2 hours after the challenge, the drugs prepared in step 2 were administered by oral gavage according to the groups, 3 times a day, 200 uL each time, with an interval of 8 hours, for a total of 7 days. Mice were administered by oral gavage with the drug solvent for the model group and the blank group.
(5) 8 h after the last administration, mice were euthanized by cervical dislocation, disinfected with 75% alcohol, and then necropsied under sterile conditions. The kidneys and livers were harvested, observed and photographed, and the weight was recorded.
(6) The kidneys and livers were placed in a sterile glass grinder and sterile PBS in a volume ten times the weight of the organs was added and grinded. The grinding solutions were taken out, 10-fold serially diluted, smeared to a TSA solid culture medium, and incubated at 37° C. for 16 hours, then the colonies were counted. The number of colonies of the organs was calculated to evaluate the therapeutic effect.

Assay [9] relates to human Burkitt's lymphoma cell Raji. The assay can be described thus: In vitro anticancer activity test (MTT cell proliferation). It is filed as cell-based. Here is the method:
as §1, §2, §3, §4, §5, §6

Assay [10] deals with A. baumannii ATCC 17978. The assay can be described thus: In vitro antibacterial activity assay (MIC, broth dilution). It is filed as cell-based. The following applies: Acinetobacter baumannii, ATCC17978; Table 2; read-out: G- bacteria MIC A. baumannii ATCC 17978. From the text:
(§7) The method used to indicate the activity of the compounds in this example is to record the minimum inhibitory concentration (MIC) of the compounds against bacteria. The specific experimental method is as follows:
(§8) 1. The bacterial liquid cultured from a single colony was taken, and diluted into autoclaved CAMHB broth in a ratio of 1:1000, and mixed well.
(§9) 2. The prepared drug solution was filtered through a sterile 0.22 µm syringe filter and placed in a sterile EP tube for later use.
(§10) 3. A 96-well plate was taken, and 20 µL of drug solution ([…]) was added to each well in the first column of the 96-well plate. Then, 180 µL of diluted bacterial liquid was added and mixed well (Perform 3 replicate rows for each drug).
(§11) The same process was performed for the hydrochloride drug.
(§12) 4. 100 μL of diluted bacterial liquid was added to each well in the remaining 11 columns of the 96-well plate. Drugs are the same as above.
(§13) 5. Serial dilution: 100 μL of liquid was taken from the first column to the second column, mixed well, then 100 μL of liquid was taken from the second column to the third column, mixed well, and so on, sequentially diluting down to the last column (column 12). After mixing column 12 well, 100 μL of liquid thereof was discarded. The drug concentration in each well was decreased by two-fold serially (the concentration in the first well is 40 μg/mL).
(§14) 6. Blank CAMHB broth without added bacteria liquid was added to 3 blank wells in the 96-well plate, as negative control.
(§15) 7. The diluted bacterial liquid was added to 3 blank wells in the 96-well plate, as positive control.
(§16) 8. Incubated at 37° C. for 16 hours.
(§17) 9. Results reading: the minimum inhibitory concentration is the minimum drug concentration at which no bacterial growth is visible to the naked eye and without turbidity.

Assay [11] relates to E. coli ATCC 25922. The assay is described as above. It counts as cell-based. The settings on record: Escherichia coli, ATCC25922; Table 2; read-out: G- bacteria MIC E. coli ATCC 25922.
Excerpt: as §7, §8, §9, §10, §11, §12, §13, §14, §15, §16, §17

In assay [12] the test system is E. feacium ATCC 700221. The assay is described as above. The following applies: read-out: G+ bacteria MIC E. feacium ATCC 700221. It is filed as cell-based.
Excerpt: as §7, §8, §9, §10, §11, §12, §13, §14, §15, §16, §17

The subject of assay [13] is P. aeruginosa ATCC 27853. Described as above. It is filed as cell-based. The following applies: Pseudomonas aeruginosa, ATCC27853; Table 2; read-out: G- bacteria MIC P. aeruginosa ATCC 27853.
Excerpt: as §7, §8, §9, §10, §11, §12, §13, §14, §15, §16, §17

In assay [14] the test system is S. aureus ATCC 43300. The description is as above. It counts as cell-based. The settings on record: Staphylococcus aureus, ATCC43300; Table 1; read-out: G+ bacteria MIC S. aureus ATCC 43300.
Excerpt: as §7, §8, §9, §10, §11, §12, §13, §14, §15, §16, §17

Values after ≈ are worked out from the molar mass of the structure shown. Some results are limits rather than exact numbers.

What is called IC50 is the point on the concentration scale where inhibition reaches its midpoint. Read a low IC50 as higher potency. As a reminder, the MIC is the lowest concentration that inhibits growth of the organism.

On to `O=C(O)c1cn(C2CC2)c2c(Cl)c(-c3ccc(S(=O)(=O)NCCCC(F)(F)F)nc3)c(F)cc2c1=O` [Example 34, 8-chloro-1-cyclopropyl-6-fluoro-4-oxo-7-(6-(N-(4,4,4-trifluorobutyl)sulfamoyl)pyridin-3-yl)-1,4-dihydroquinolin-3-carboxylic acid], for which the “initial MIC compared with marketed drugs” value in [1] was “superior to the marketed drugs ciprofloxacin and vancomycin”. In addition, the IC50 in [2], in assay [3], in assay [4], in assay [5], in assay [6] and in assay [7] was 1 to 10 µM each time. Moreover, the figures for the “number of colonies of liver and kidney” value in [8] (1 mg/kg oral gavage) and in assay [8] (4 mg/kg oral gavage) were “significant statistical difference from the control group” and “good antibacterial effect”, respectively. Also, in assay [8] (compared with the positive drug ciprofloxacin), the “antibacterial effect in the liver and kidney (number of colonies of organs)” value is reported as “very significant antibacterial effect”.
Turning to `Cc1c(-c2cnc(N)nc2)c(F)cc2c(=O)c(C(=O)O)cn(C3CC3)c12` [compound 1, reference compound], the IC50 in assay [9] is ≥ 40 µM.
For `COc1c(-c2ccc(NC(=O)C(F)(F)F)c(C#N)c2)c(F)cc2c(=O)c(C(=O)O)cn(C3CC3)c12` [Example 8, 7-(3-cyano-4-(2,2,2-trifluoroacetamido)phenyl)-1-cyclopropyl-6-fluoro-8-methoxy-4-oxo-1,4-dihydroquinolin-3-carboxylic acid], the MIC in [10] was 0.1 to 1 µg/mL (≈ 0.204 to 2.04 µM); in assay [11] it was ≤ 0.1 µg/mL; in [12], 1 to 8 µg/mL (≈ 2.04 to 16.3 µM); in [13] it was 0.1 to 1 µg/mL (≈ 0.204 to 2.04 µM); in assay [14] it was ≤ 0.1 µg/mL.
